Reference: patent publication US9889183B2, “PKC activators and anticoagulant in regimen for treating stroke” (BLANCHETTE ROCKEFELLER NEUROSCIENCES INSTITUTE, priority 2010, dated 2018)

What was measured:
[1] = test system: Aβ in neuro2a (N2a) neuroblastoma cells; assay: Aβ production in N2a cells transfected with human APPSwe/PS1D (ELISA); format: cell-based, mouse; conditions: for levels of intracellular Aβ / levels of secreted Aβ: various concentrations; for levels of intracellular Aβ: FIG. 11a; for levels of secreted Aβ: FIG. 11b; for concentration dependence of Aβ inhibition: up to 10 μM to 100 μM, no evidence of downregulation
Protocol: Cell culture. Rat hippocampal H19-7/IGF-IR cells (ATCC, Manassas, Va.) were plated onto poly-L-lysine coated plates and grown at 35° C. in DMEM/10% FCS for several days until about 50% coverage was obtained. The cells were then induced to differentiate into a neuronal phenotype by replacing the medium with 5 ml N2 medium containing 10 ng/ml basic fibroblast growth factor at 39° C. and grown in T-75 flasks at 37° C. Human SH-SY5Y neuroblastoma cells (ATCC) were cultured in 45% F12K/45% MEM/10% FCS. Mouse N2A neuroblastoma cells were cultured in DMEM/10% FCS without glutamine. Rat hippocampal neurons from 18-day-old embryonic Sprague Dawley rat brains were plated on 12- or 96-well plates coated with poly-D-lysine (Sigma-Aldrich, St. Louis, Mo.) in B-27 neurobasal medium containing 0.5 mM glutamine and 25 μM glutamate (Invitrogen, Carlsbad, Calif.) and cultured for three days in the medium without glutamate. The neuronal cells were grown under 5% CO2 in an incubator maintained at 37° C. for 14 days.
(§1) Aβ Measurement and Cell Viability Assay. Aβ was measured using an Aβ 1-42 human fluorimetric ELISA kit (Invitrogen) according to the manufacturer's instructions. Results were measured in a Biotek Synergy HT microplate reader. AlamarBlue and CyQuant NF (Invitrogen) according to the manufacturer's instructions.
To measure the effects of PKCε activation on Aβ production, mouse neuro2a (N2a) neuroblastoma cells transfected with human APPSwe/PSID were used, which produce large quantities of Aβ. Petanceska et al., J Neurochem. (1996), vol. 74, pp. 1878-1884. […] With bryostatin, which activates PKC by binding to the diacylglycerol-binding site, the inhibition was biphasic with concentrations of 20 nM or higher producing no net effect. This may be explained by the ability of this class of PKC activators to downregulate PKC when used at high concentrations.

[2] = test system: SH-SY5Y neuroblastoma cells; assay: Cell survival and proliferation (alamar Blue, CyQuant); format: cell-based, human
Protocol: as §1

[3] = test system: TACE in N2a neuroblastoma cells; assay: TACE assay, N2a cells; format: cell-based; conditions: N2a mouse neuroblastoma cells, FIG. 13a
Protocol: FIGS. 13a, 13b and 13c show effects of (FIG. 13a) bryostatin, BR-101 (DCP-LA) and BR-111 (DHA-CP6) on TACE activity in N2a neuroblastoma cells transfected with human APPSwe/PS1D; (FIG. 13b) various concentrations of bryostatin on TACE activity in rat cortical primary neurons; and (FIG. 13c) BR-111 (DHA-CP6) on TACE activity in rat cortical primary neurons.
TACE Assay. TACE was measured by incubating 5 μl cell homogenate, 3 μl buffer (50 mM Tris-HCl 7.4 plus 25 mM NaCl plus 4% glycerol), and 1 μl of 100 μM TACE substrate (Aβz-[…]-DPa) (Calbiochem) for 20 min at 37° C. 1.5-ml polypropylene centrifuge tubes. Jin et al., Anal. Biochem. (2002), vol. 302, pp. 269-275. The reaction was stopped by cooling to 4° C. The samples were diluted to 1 ml and the fluorescence was rapidly measured (ex=320 nm, em=420 nm) in a Spex Fluorolog 2 spectrofluorometer.
Buxbaum et al., J Biol. Chem. (1998), vol. 273, pp. 27765-27767; Etcheberrigaray et al., Proc. Natl. Acad. Sci. USA (2006), vol. 103, pp. 8215-8220. However, many of these earlier studies were carried out in fibroblasts and other non-neuronal cell types, which appear to respond differently to PKC activators than neurons.

[4] = test system: Endothelin-converting enzyme (ECE); assay: ECE assay in neuroblastoma cells; format: cell-based, human; conditions: bryostatin 0.27 nM, BR-101 1 μM, BR-111 1 μM; FIG. 14
Protocol: ECE assay. […] neuroblastoma cells were incubated with bryostatin (0.27 nM), BR-101 (DCP-LA) (1 μM), and BR-111 (DHA-CP6) (1 μM). Endothelin-converting enzyme (ECE) was measured fluorimetrically using the method of Johnson and Ahn (Anal. Biochem. (2000), vol. 286, pp. 112-118). A sample of cell homogenate (20 μl) was incubated in 50 mM MES-KOH, pH 6.0, 0.01% C12E10 (polyoxyethylene-10-lauryl ether), and 15 μM McaBK2 (7-Methoxycoumarin-4-acetyl [Ala7-(2,4-Dinitrophenyl)Lys9]-bradykinin trifluoroacetate salt) (Sigma-Aldrich). After 60 min at 37° C., the reaction was quenched by adding trifluoroacetic acid to 0.5%. The sample was diluted to 1.4 ml with water and the fluorescence was measured at ex=334 nm, em=398 nm.

Row | Compound | levels of intracellular Aβ ([1]; 24 hours) | levels of secreted Aβ ([1]; 24 hours) | concentration dependence of Aβ inhibition [1] | effect on cell survival (alamar Blue) [2] | effect on proliferation (CyQuant) [2] | TACE activity [3] | ECE activity [4] | concentrations producing no net effect on Aβ (biphasic inhibition) ([1]; 24 hours)
1 | CCCCCC1CC1CC1CC1CCCCCCCC(=O)O (stereo not drawn) [BR-101, 2-[(2-pentylcyclopropyl)methyl]cyclopropaneoctanoic acid] | markedly reduced | markedly reduced | monotonically increasing inhibition | no effect | no effect | small increases | sustained increase | –
2 | CCC1CC1CC1CC1CC1CC1CC1CC1CC1CC1CC1CC1CCC(=O)OC (stereo not drawn) [BR-111, methyl-3-(2-((2-((2-((2-((2-((2-ethylcyclopropyl)methyl)cyclopropyl)methyl)cyclopropyl)methyl)-cyclopropyl)methyl)cyclopropyl)methyl)cyclopropyl)propanoate] | markedly reduced | markedly reduced | monotonically increasing inhibition | no effect | no effect | small increases | sustained increase | –
3 | CCC/C=C/C=C/C(=O)O[C@H]1/C(=C/C(=O)OC)C[C@H]2C[C@H]([C@@H](C)O)OC(=O)C[C@H](O)C[C@@H]3C[C@H](OC(C)=O)C(C)(C)[C@](O)(C[C@@H]4C/C(=C/C(=O)OC)C[C@H](/C=C/C(C)(C)[C@]1(O)O2)O4)O3 [Bryostatin-1, bryostatin-1] | markedly reduced | markedly reduced | – | no effect | no effect | small increases | sustained increase | ≥ 20 nM
